What was measured:
Assay in all cases: KinaseProfiler off-target kinase profiling
Assay type in all cases: biochemical
Details in all cases: 10 μM, ATP near Km
JNK3 = target: T1, JNK3 (Homo sapiens, UniProt P53779)
T1 construct: purchased Millipore, Inc. (KinaseProfiler service)
Description: (§1) A representative compound of the invention (Example 2) was tested for off-target kinase activity at a concentration of 10 μM by Millipore, Inc. in their KinaseProfiler™ service against all the kinases available in their full kinase panel. The compound was run in duplicate at a concentration of ATP near the Km for each individual kinase according to Millipore's specifications. The results are shown in Table B. Data are reported as percent of control (POC) and are the average of the two replicates.

ULK3 = target: T2, ULK3 (Homo sapiens, UniProt Q6PHR2)
T2 construct: purchased Millipore, Inc. (KinaseProfiler service)
Description: as §1

DAPK1 = target: T3, DAPK1 (Homo sapiens, UniProt P53355)
T3 construct: purchased Millipore, Inc. (KinaseProfiler service)
Description: as §1

SRPK2 = target: T4, SRPK2 (Homo sapiens, UniProt P78362)
T4 construct: purchased Millipore, Inc. (KinaseProfiler service)
Description: as §1

SIK = target: T5, SIK (Homo sapiens, UniProt P57059)
T5 construct: purchased Millipore, Inc. (KinaseProfiler service)
Description: as §1

PTK5 = target: T6, PTK5 (Homo sapiens, UniProt P42685)
T6 construct: purchased Millipore, Inc. (KinaseProfiler service)
Description: as §1

Met = target: T7, Met (Homo sapiens, UniProt P08581)
T7 construct: purchased Millipore, Inc. (KinaseProfiler service)
Description: as §1

EphA5 = target: T8, EphA5 (Homo sapiens, UniProt P54756)
T8 construct: purchased Millipore, Inc. (KinaseProfiler service)
Description: as §1

GRK7 = target: T9, GRK7 (Homo sapiens, UniProt Q8WTQ7)
T9 construct: purchased Millipore, Inc. (KinaseProfiler service)
Description: as §1

LKB1 = target: T10, LKB1 (Homo sapiens, UniProt Q15831)
T10 construct: purchased Millipore, Inc. (KinaseProfiler service)
Description: as §1

TAK1 = target: T11, TAK1 (Homo sapiens, UniProt O43318)
T11 construct: purchased Millipore, Inc. (KinaseProfiler service)
Description: as §1

DCAMKL2 = target: T12, DCAMKL2 (Homo sapiens, UniProt Q8N568)
T12 construct: purchased Millipore, Inc. (KinaseProfiler service)
Description: as §1

IKKbeta = target: T13, IKKbeta (Homo sapiens, UniProt O14920)
T13 construct: purchased Millipore, Inc. (KinaseProfiler service)
Description: as §1

p38gamma = target: T14, p38gamma (Homo sapiens, UniProt P53778)
T14 construct: purchased Millipore, Inc. (KinaseProfiler service)
Description: as §1

TrkB = target: T15, TrkB (Homo sapiens, UniProt Q16620)
T15 construct: purchased Millipore, Inc. (KinaseProfiler service)
Description: as §1

IRAK4 = target: T16, IRAK4 (Homo sapiens, UniProt Q9NWZ3)
T16 construct: purchased Millipore, Inc. (KinaseProfiler service)
Description: as §1

CDK6/cyclinD3 = target: T17, CDK6/cyclinD3 (Homo sapiens, UniProt Q00534)
T17 construct: purchased Millipore, Inc. (KinaseProfiler service)
Description: as §1

TNK2 = target: T18, TNK2 (Homo sapiens, UniProt Q07912)
T18 construct: purchased Millipore, Inc. (KinaseProfiler service)
Description: as §1

Plk3 = target: T19, Plk3 (Homo sapiens, UniProt Q9H4B4)
T19 construct: purchased Millipore, Inc. (KinaseProfiler service)
Description: as §1

ITK = target: T20, ITK (Homo sapiens, UniProt Q08881)
T20 construct: purchased Millipore, Inc. (KinaseProfiler service)
Description: as §1

Ron = target: T21, Ron (Homo sapiens, UniProt Q04912)
T21 construct: purchased Millipore, Inc. (KinaseProfiler service)
Description: as §1

MSK2 = target: T22, MSK2 (Homo sapiens, UniProt O75676)
T22 construct: purchased Millipore, Inc. (KinaseProfiler service)
Description: as §1

MLK1 = target: T23, MLK1 (Homo sapiens, UniProt P80192)
T23 construct: purchased Millipore, Inc. (KinaseProfiler service)
Description: as §1

PTK6 = target: T24, PTK6 (Homo sapiens, UniProt Q13882)
T24 construct: purchased Millipore, Inc. (KinaseProfiler service)
Description: as §1

Yes = target: T25, Yes (Homo sapiens, UniProt P07947)
T25 construct: purchased Millipore, Inc. (KinaseProfiler service)
Description: as §1

EphA4 = target: T26, EphA4 (Homo sapiens, UniProt P54764)
T26 construct: purchased Millipore, Inc. (KinaseProfiler service)
Description: as §1

IR = target: T27, IR (Homo sapiens, UniProt P06213)
T27 construct: purchased Millipore, Inc. (KinaseProfiler service)
Description: as §1

VRK2 = target: T28, VRK2 (Homo sapiens, UniProt Q86Y07)
T28 construct: purchased Millipore, Inc. (KinaseProfiler service)
Description: as §1

AMPK(A1/B1/G1) = target: T29, AMPK(A1/B1/G1) (Homo sapiens, UniProt Q13131)
T29 construct: purchased Millipore (KinaseProfiler service)
Description: as §1

CK2alpha2 = target: T30, CK2alpha2 (Homo sapiens, UniProt P19784)
T30 construct: purchased Millipore, Inc. (KinaseProfiler service)
Description: as §1

AKT1 = target: T31, AKT1 (Homo sapiens, UniProt P31749)
T31 construct: purchased Millipore (KinaseProfiler service)
Description: as §1

DAPK3 = target: T32, DAPK3 (Homo sapiens, UniProt O43293)
T32 construct: purchased Millipore, Inc. (KinaseProfiler service)
Description: as §1

CDK2/cyclinE = target: T33, CDK2/cyclinE (Homo sapiens, UniProt P24941)
T33 construct: purchased Millipore, Inc. (KinaseProfiler service)
Description: as §1

Ros = target: T34, Ros (Homo sapiens, UniProt P08922)
T34 construct: purchased Millipore, Inc. (KinaseProfiler service)
Description: as §1

CDK5/p35 = target: T35, CDK5/p35 (Homo sapiens, UniProt Q00535)
T35 construct: purchased Millipore, Inc. (KinaseProfiler service)
Description: as §1

IGF-1R Activated = target: T36, IGF-1R Activated (Homo sapiens, UniProt P08069)
T36 construct: purchased Millipore, Inc. (KinaseProfiler service)
Description: as §1

MST1 = target: T37, MST1 (Homo sapiens, UniProt Q13043)
T37 construct: purchased Millipore, Inc. (KinaseProfiler service)
Description: as §1

FAK2 = target: T38, FAK2 (Homo sapiens, UniProt Q14289)
T38 construct: purchased Millipore, Inc. (KinaseProfiler service)
Description: as §1

DMPK = target: T39, DMPK (Homo sapiens, UniProt Q09013)
T39 construct: purchased Millipore, Inc. (KinaseProfiler service)
Description: as §1

PKCbetaII = target: T40, PKCbetaII (Homo sapiens, UniProt P05771)
T40 construct: purchased Millipore, Inc. (KinaseProfiler service)
Description: as §1

CHK2 = target: T41, CHK2 (Homo sapiens, UniProt O96017)
T41 construct: purchased Millipore, Inc. (KinaseProfiler service)
Description: as §1

T35 sequence (Q00535 whole entry): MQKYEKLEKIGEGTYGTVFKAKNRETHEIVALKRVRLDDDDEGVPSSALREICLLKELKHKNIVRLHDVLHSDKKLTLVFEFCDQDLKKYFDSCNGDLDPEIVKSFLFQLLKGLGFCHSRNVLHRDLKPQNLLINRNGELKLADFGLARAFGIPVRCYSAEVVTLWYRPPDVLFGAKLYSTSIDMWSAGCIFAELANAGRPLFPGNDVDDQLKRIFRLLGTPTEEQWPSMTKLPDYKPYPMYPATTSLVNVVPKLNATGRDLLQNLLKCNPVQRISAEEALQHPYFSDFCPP
T35 sequence (Q15078 whole entry partner): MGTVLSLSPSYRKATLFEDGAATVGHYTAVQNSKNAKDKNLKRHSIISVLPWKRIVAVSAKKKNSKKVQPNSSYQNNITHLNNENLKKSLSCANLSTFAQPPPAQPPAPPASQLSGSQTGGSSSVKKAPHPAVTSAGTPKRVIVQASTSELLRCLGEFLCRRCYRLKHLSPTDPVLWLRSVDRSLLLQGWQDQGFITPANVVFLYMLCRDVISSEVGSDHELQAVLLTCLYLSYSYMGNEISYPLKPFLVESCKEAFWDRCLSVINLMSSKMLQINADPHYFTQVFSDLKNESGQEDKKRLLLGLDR
T19 sequence (Q9H4B4 whole entry): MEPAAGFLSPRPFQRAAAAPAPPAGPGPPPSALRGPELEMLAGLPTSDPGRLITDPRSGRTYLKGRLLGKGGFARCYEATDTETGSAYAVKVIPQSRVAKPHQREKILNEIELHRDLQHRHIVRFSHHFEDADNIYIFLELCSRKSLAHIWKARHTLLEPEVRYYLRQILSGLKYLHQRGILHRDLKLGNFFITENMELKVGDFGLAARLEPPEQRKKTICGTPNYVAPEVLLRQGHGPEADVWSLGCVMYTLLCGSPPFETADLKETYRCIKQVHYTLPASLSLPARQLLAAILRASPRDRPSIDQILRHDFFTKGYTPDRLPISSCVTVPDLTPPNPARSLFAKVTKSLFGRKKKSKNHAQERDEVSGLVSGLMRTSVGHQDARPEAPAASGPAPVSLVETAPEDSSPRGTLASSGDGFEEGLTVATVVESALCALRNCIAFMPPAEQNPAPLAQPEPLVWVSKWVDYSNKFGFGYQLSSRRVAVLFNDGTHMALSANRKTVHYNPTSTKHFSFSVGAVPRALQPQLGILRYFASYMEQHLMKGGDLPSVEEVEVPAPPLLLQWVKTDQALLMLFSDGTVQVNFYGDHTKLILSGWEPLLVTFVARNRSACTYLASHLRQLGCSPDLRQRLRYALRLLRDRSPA
T26 sequence (P54764 20-986): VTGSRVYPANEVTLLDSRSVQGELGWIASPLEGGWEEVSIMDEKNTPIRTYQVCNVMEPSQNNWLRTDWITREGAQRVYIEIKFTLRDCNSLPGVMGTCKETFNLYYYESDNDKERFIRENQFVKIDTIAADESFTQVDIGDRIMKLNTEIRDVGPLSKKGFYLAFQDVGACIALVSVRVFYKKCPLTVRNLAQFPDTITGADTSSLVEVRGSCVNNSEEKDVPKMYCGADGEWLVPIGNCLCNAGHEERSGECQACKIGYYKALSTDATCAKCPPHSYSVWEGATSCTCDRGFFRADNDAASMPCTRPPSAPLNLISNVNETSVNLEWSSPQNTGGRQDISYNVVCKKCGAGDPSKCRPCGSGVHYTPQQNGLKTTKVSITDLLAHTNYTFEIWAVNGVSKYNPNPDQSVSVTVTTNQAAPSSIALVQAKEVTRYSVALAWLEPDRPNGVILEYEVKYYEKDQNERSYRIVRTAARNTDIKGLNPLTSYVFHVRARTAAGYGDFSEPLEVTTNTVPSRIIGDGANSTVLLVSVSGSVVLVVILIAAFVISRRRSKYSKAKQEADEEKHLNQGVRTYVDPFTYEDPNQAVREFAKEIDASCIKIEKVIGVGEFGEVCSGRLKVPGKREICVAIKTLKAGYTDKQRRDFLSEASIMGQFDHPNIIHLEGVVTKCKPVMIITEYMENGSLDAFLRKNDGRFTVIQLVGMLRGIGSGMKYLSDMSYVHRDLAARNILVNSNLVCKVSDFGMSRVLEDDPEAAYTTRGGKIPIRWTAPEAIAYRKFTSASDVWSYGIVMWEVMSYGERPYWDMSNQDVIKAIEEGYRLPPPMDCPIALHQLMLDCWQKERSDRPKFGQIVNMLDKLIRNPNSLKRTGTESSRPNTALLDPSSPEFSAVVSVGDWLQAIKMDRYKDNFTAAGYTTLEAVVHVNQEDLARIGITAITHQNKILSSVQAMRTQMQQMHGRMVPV
T3 sequence (P53355 whole entry): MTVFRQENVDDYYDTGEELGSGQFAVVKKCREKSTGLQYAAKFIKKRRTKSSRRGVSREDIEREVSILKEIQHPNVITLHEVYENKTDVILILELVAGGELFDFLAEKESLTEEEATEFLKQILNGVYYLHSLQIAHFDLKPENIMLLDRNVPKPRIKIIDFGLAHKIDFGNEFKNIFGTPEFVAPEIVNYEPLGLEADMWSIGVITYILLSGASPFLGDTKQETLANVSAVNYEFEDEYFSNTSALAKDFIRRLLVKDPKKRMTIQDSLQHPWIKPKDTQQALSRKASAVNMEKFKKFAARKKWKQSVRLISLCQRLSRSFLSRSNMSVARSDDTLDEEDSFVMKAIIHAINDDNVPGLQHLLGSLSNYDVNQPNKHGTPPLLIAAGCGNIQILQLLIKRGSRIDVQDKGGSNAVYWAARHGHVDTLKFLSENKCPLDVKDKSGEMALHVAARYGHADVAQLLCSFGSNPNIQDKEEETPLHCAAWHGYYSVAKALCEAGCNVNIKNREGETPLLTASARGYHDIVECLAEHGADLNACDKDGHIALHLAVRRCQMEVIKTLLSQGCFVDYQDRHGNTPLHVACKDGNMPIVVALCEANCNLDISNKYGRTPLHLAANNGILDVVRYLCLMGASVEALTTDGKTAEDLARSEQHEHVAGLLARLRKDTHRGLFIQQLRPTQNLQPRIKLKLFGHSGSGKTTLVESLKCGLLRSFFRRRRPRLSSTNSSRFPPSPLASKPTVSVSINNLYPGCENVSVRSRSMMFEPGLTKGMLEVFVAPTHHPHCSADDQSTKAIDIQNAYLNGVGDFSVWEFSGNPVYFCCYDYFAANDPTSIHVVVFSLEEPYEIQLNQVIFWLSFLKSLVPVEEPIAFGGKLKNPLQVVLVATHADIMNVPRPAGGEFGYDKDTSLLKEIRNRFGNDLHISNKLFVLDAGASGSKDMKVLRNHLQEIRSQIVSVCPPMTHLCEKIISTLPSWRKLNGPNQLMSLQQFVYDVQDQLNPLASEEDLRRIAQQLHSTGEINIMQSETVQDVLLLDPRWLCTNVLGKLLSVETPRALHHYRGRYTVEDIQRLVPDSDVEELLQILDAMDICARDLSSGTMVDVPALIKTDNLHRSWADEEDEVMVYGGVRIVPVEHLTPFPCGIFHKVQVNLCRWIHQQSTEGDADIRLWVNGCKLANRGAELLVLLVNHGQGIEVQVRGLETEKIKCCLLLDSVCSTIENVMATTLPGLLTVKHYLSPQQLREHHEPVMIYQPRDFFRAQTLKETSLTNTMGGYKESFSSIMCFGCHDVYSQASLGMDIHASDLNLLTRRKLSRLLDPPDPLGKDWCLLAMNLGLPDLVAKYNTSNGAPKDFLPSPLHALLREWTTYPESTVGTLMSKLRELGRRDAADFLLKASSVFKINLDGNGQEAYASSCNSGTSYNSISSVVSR
T14 sequence (P53778 whole entry): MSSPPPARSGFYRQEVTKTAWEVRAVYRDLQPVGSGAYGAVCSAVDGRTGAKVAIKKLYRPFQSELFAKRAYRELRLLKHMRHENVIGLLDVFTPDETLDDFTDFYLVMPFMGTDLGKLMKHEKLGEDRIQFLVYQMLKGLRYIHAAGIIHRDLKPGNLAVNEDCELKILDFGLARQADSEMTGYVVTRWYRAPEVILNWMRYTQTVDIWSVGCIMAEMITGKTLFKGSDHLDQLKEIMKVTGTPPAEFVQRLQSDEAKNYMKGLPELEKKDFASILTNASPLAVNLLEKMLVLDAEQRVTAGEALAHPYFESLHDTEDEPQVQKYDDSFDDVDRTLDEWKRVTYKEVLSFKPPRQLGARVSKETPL
T40 sequence (P05771 1-673 isoform P05771-2): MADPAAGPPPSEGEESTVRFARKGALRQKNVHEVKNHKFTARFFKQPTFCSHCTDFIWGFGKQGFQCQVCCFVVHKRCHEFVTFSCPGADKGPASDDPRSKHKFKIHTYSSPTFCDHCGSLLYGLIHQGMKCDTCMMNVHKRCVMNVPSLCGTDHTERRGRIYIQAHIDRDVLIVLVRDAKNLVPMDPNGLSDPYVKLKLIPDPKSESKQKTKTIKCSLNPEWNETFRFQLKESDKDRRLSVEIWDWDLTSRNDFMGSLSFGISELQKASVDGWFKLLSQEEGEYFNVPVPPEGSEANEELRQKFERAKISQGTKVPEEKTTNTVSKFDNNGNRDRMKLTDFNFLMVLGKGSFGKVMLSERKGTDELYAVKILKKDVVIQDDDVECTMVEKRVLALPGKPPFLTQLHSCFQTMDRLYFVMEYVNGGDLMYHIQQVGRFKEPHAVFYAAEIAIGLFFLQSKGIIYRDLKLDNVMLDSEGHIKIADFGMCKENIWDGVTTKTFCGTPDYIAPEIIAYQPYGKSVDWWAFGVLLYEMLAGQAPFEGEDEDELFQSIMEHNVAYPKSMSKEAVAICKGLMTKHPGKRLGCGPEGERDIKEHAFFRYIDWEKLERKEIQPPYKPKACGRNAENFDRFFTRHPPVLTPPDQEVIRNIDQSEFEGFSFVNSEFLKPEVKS
T30 sequence (P19784 whole entry): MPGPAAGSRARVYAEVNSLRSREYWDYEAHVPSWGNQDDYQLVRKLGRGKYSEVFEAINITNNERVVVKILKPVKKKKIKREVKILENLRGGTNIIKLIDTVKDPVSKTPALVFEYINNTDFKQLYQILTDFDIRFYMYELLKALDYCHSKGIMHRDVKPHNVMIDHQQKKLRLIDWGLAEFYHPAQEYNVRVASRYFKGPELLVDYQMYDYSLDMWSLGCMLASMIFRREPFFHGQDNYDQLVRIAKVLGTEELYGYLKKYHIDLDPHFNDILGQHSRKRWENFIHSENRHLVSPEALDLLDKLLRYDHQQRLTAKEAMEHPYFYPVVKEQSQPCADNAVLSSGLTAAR

Avg POC (JNK3): 120 POC
Avg POC (ULK3): 90 POC
Avg POC (DAPK1): 126.5 POC
Avg POC (SRPK2): 113.5 POC
Avg POC (SIK): 145 POC
Avg POC (PTK5): 104.5 POC
Avg POC (Met): 120 POC
Avg POC (EphA5): 118.5 POC
Avg POC (GRK7): 112 POC
Avg POC (LKB1): 96.5 POC
Avg POC (TAK1): 95.5 POC
Avg POC (DCAMKL2): 210.5 POC
Avg POC (IKKbeta): 112 POC
Avg POC (p38gamma): 105 POC
Avg POC (TrkB): 3 POC
Avg POC (IRAK4): 112 POC
Avg POC (CDK6/cyclinD3): 119.5 POC
Avg POC (TNK2): 142.5 POC
Avg POC (Plk3): 105 POC
Avg POC (ITK): 125.5 POC
Avg POC (Ron): 110.5 POC
Avg POC (MSK2): 136 POC
Avg POC (MLK1): 95.5 POC
Avg POC (PTK6): 113.5 POC
Avg POC (Yes): 128.5 POC
Avg POC (EphA4): 109 POC
Avg POC (IR): 99 POC
Avg POC (VRK2): 91.5 POC
Avg POC (AMPK(A1/B1/G1)): 134.5 POC
Avg POC (CK2alpha2): 104 POC
Avg POC (AKT1): 133 POC
Avg POC (DAPK3): 120 POC
Avg POC (CDK2/cyclinE): 100 POC
Avg POC (Ros): 96.5 POC
Avg POC (CDK5/p35): 111 POC
Avg POC (IGF-1R Activated): 97.5 POC
Avg POC (MST1): 100.5 POC
Avg POC (FAK2): 107 POC
Avg POC (DMPK): 107.5 POC
Avg POC (PKCbetaII): 95 POC
Avg POC (CHK2): 133 POC
SMILES: Cc1c(-c2cnn(C)c2)nn(-c2ccccc2)c1NC(=O)Nc1sc(C(F)(F)F)nc1-c1ccccc1 [Example 2, 1-(1′,4-dimethyl-1-phenyl-1H,1′H-[3,4′-bipyrazol]-5-yl)-3-(4-phenyl-2-(trifluoromethyl)thiazol-5-yl)urea]

Source: patent US9981959B2, “Thiazolyl and oxazolyl urea, thiourea, guanidine and cyanoguanidine compounds as TrkA kinase inhibitors” (Array BioPharma Inc., priority 2012, dated 2018)
